Assay results: patent US5314999A, “Derivatives of basic polyene macrolides and their preparation” (Laboratoires Mayoly-Spindler, priority 1989, dated 1994)
≈ marks a conversion by molar mass, not a printed value. Read-outs that look alike come from different tables or passages of the source.

Assays:
[1] = Toxicity on nucleated cells, human thymocytes; type: cell-based; details: 1 hour 30, trypan blue, read-out: LD 50 (concentration leading to a mortality of 50%)
Procedure: (§1) B.2: Study of the toxicity on nucleated cells
(§2) The solutions of the amphotericine B derivatives are prepared similarly to those mentioned in paragraph B.1.
(§3) The cells are prepared by placing 20 ml of blood diluted to 1/2 with 0.9% NaCl into a tube together with 10 ml of Ficoll-hypaque, and the mixture is centrifuged at 2000 rpm for 30 minutes. The cell nuclei are recovered and washed twice with PBS buffer containing 5% of foetal calf serum.
(§4) The cells are prepared by suspending 1.14×10^6 cells/ml in RPMI 1640 containing 2.5% of foetal calf serum and by filling each well with 150 μl. 50 μl of each dilution of the derivatives are added and also one control (5% glucose solution).
(§5) The cells are then incubated in a steam cabinet at a CO2 concentration of 5% for 1 hour 30 at 37° C. or at ambient temperature.
(§6) To evaluate the toxicity of the derivatives, a cell count in the presence of trypan blue is made, and the LD 50 (concentration of the derivative leading to a mortality of 50%) is calculated with respect to the control (5% glucose solution) for each concentration of each derivative.

DAUDI (human lymphoma B) = assay: Toxicity on nucleated cells, DAUDI human lymphoma B; type: cell-based; details: 1 hour 30, trypan blue, 90 min, read-out: LD 50 (concentration leading to a mortality of 50%)
Saccharomyces cerevisiae = assay: Growth inhibition in liquid medium (Sabouraud broth); type: cell-based; details: Saccharomyces cerevisiae, 18 h, Sabouraud broth, 28° C., 18 hours; read-out: IC 50 (growth-inhibiting concentration of 50%)
Procedure: (§7) A.1 : Study of the antibiotic efficiency of AmB derivatives in liquid medium against different yeasts
(§8) The antibiotic efficiency was tested by the growth inhibition method in liquid medium (Sabouraud broth) in the presence of different concentrations of the derivatives studied.
(§9) A yeast suspension was cultivated in a broth in such a manner that about 1×10^2 cell/ml were obtained.
(§10) The tubes containing the different concentrations of antifungal substance were inoculated with the same amount of yeast cells, and were then incubated at 28° C. for 18 hours with stirring. For each concentration of antifungal substance, two identical tubes were prepared.
(§11) The inhibition of fungal growth corresponding to the different concentrations was evaluated for each molecule by spectrophotometry at 620 nm and expressed in percent with respect to a reference solution without antifungal substance.

Cryptoccocus neoformans = assay: as above; type: cell-based; details: 18 h, Sabouraud broth, 28° C., 18 hours; read-out: IC 50 (growth-inhibiting concentration of 50%)
Procedure: as §7, §8, §9, §10, §11

Pytirosporum orbiculare = assay: as above; type: cell-based; details: Sabouraud broth, 28° C., 18 hours; read-out: IC 50 (growth-inhibiting concentration of 50%)
Procedure: as §7, §8, §9, §10, §11

Candida albicans B 2630 = assay: as above; type: cell-based; details: B2630, Sabouraud broth, 28° C., 18 hours, read-out: IC 50 (growth-inhibiting concentration of 50%)
Procedure: as §7, §8, §9, §10, §11

Candida albicans = assay: as above; type: cell-based; details: Candida albicans, 18 h, Sabouraud broth, 28° C., 18 hours; read-out: IC 50 (growth-inhibiting concentration of 50%)
Procedure: as §7, §8, §9, §10, §11

[2] = Toxicity on red corpuscles (lysis), mice; type: cell-based; details: mouse, red blood cells, 37° C., 1 hour 30, read-out: LD 50 (dose which leads to lysis in 50% of the erythrocytes)
Procedure: (§12) B.1: Study of the toxicity on red corpuscles
(§13) All the solutions of the AmB derivatives according to the invention were prepared immediately before use by diluting 4 mg of substance in 100 μl of 5% glucose solution, and then, after 15 minutes protected from light, 100 μl of sterile distilled water are added, and the mixture is made up to stock solutions of 4 mg/ml with a 5% glucose solution. For comparative study of the effects of AmB, 4 mg of FUNGIZONE are diluted with 1 ml of 5% glucose.
(§14) The cells are prepared by placing 1 ml of a peripheral blood sample into a tube together with Ficollhypaque to remove the lymphocytes, and then centrifuging the mixture at 2000 rpm for 20 minutes. The remaining red corpuscles are recovered, washed once with 0.9% NaCl and then twice with 150 Mm KCl, 0.5 Mm tris-HCl, pH 7.4.
(§15) A 1.25% suspension is then prepared with 150 mM KCl solution, 0.5 mM tris-HCl, pH 7.4, and 150 μl thereof are distributed in wells along with 50 μl of each of the dilutions of the derivatives, plus a control well (5% glucose solution).
(§16) The cells are then incubated at 37° C. in a steam cabinet for 1 hour 30.
(§17) To evaluate the cell lysis, haemoglobin is essayed by removing 100 μl of the supernatant in each well and diluting the sample with 1 ml of distilled water.
(§18) The haemoglobin concentration is calculated by measuring the optical density at 540 nm and taking into account the absorption of the derivatives of amphotericine B.
(§19) LD 50 is the dose which leads to lysis in 50% of the erythrocytes (a control of 100% lysis is obtained with distilled water, and reference lysis of 0% is obtained with the 5% glucose solution).

PBL = assay: Toxicity on nucleated cells, human PBL; type: cell-based; details: 90 min
Procedure: as §1, §2, §3, §4, §5, §6

red corpuscles = assay: Toxicity on red corpuscles (lysis), human; type: cell-based; details: 37° C., 1 hour 30, 90 min, 90 min, read-out: LD 50 (dose which leads to lysis in 50% of the erythrocytes)
Procedure: as §12, §13, §14, §15, §16, §17, §18, §19

[3] = Toxicity on nucleated cells, mice T lymph gland cells; type: cell-based; details: mouse, 1 hour 30, trypan blue, read-out: LD 50 (concentration leading to a mortality of 50%)
Procedure: as §1, §2, §3, §4, §5, §6

Aspergillus fumigatus = assay: Diffusion method in agar-agar medium (Sabouraud agar-agar); type: cell-based; details: Aspergillus fumigatus, Sabouraud agar-agar, disc diameter 1 cm, 0.1 ml; read-out: concentration giving a growth inhibition of 1 cm around a disc in solid medium
Procedure: (§20) A.2 : Study of the antibiotic efficiency of amphotericine B derivatives in agar-agar medium against Aspergillus
(§21) The antibiotic activity was tested by the diffusion method in agar-agar medium (Sabouraud agar-agar).
(§22) The efficiency of each molecule was determined by the size of the growth-inhibiting zone around a WHATMAN 3M paper disc impregnated with the antibiotic substance of a given concentration.
(§23) A suspension of Aspergillus spores in a broth was prepared, 0.2 ml of this suspension was used to inoculate at its surface an agar-agar medium which was solidified in such a manner that a homogeneous growth layer was obtained. After spreading, the WHATMAN 3M paper discs (diameter: 1 cm) were placed on the surface of the agar-agar, and then impregnated with 0.1 ml of the antibiotic substance at different concentrations.

Aspergillus flavus = assay: as above; type: cell-based; details: Sabouraud agar-agar, disc diameter 1 cm, 0.1 ml
Procedure: as §20, §21, §22, §23

[4] = Toxicity on nucleated cells, mice thymocytes; type: cell-based; details: mouse, thymocytes, 1 hour 30, trypan blue, read-out: LD 50 (concentration leading to a mortality of 50%)
[5] = Toxicity on nucleated cells, X 63 mice lymphoma B; type: cell-based; details: mouse, x 63 lymphoma cells, 1 hour 30, trypan blue, read-out: LD 50 (concentration leading to a mortality of 50%)
[6] = Toxicity on nucleated cells, human bone marrow; type: cell-based; details: 1 hour 30, trypan blue, read-out: LD 50 (concentration leading to a mortality of 50%)
Procedure: as §1, §2, §3, §4, §5, §6

[7] = Toxicity on nucleated cells, mice B lymph gland cells; type: cell-based; details: mouse, 1 hour 30, trypan blue, read-out: LD 50 (concentration leading to a mortality of 50%)
Procedure: as §1, §2, §3, §4, §5, §6

[8] = Solubility of the AmB derivatives; type: physicochemical; details: 5% glucose solution, ambient temperature, up to saturation; read-out: solubility (soluble up to a concentration of)
Procedure: C.2. Solubility of the AmB derivatives according to the present invention
AmB or the derivatives obtained are dissolved at ambient temperature in a 5% glucose solution up to saturation.

Structure (SMILES)	CC50 at 1.5 h [1]	CC50 (DAUDI (human lymphoma B))	IC50 (Saccharomyces cerevisiae)	IC50 (Cryptoccocus neoformans)	IC50 (Pytirosporum orbiculare)	IC50 (Candida albicans B 2630)	IC50 (Candida albicans)	HC50 at 1.5 h [2]	CC50 (PBL; human PBL, 1 hour 30, trypan blue, read-out: LD 50 (concentration leading to a mortality of 50%))	CC50 (PBL; human PBLs, AmB 12 derivative, comparison of different catalysts (Table 4), listed as Oxalic acid NMG salt, read-out: LD 50 (the source's name))	HC50 (red corpuscles)	CC50 at 1.5 h [3]	IC (1 cm inhibition zone) (Aspergillus fumigatus)	concentration giving a growth inhibition of 1 cm around a disc in solid medium (Aspergillus flavus)	CC50 at 1.5 h [4]	CC50 at 1.5 h [5]	CC50 at 1.5 h [6]	CC50 at 1.5 h [7]	solubility [8]
C[C@@H]1[C@H](O)[C@@H](C)/C=C/C=C/C=C/C=C/C=C/C=C/C=C/[C@H](O[C@@H]2O[C@H](C)[C@@H](O)[C@H](NCC3(O)O[C@H](C(N)=O)[C@@H](O)[C@@H]3O)[C@@H]2O)C[C@@H]2O[C@](O)(C[C@@H](O)C[C@@H](O)[C@H](O)CC[C@@H](O)C[C@@H](O)CC(=O)O[C@H]1C)C[C@H](O)[C@H]2C(=O)O (stereo partly drawn) [AmB 12 F, 1-amino-1-deoxy-D-arabinoglucuronamidyl-AmB]	> 300 µM	> 1 mM	1100 nM	65 nM	96 nM	240 nM	90 nM	20 µM	> 1 mM	> 1 mM	100 µM	10 µM	80 µM	3 × 10^-4 molarity	4 µM	> 1 mM	> 1 mM	10 µM	
C[C@@H]1[C@H](O)[C@@H](C)/C=C/C=C/C=C/C=C/C=C/C=C/C=C/[C@H](O[C@@H]2O[C@H](C)[C@@H](O)[C@H](NCC3(O)O[C@H](C(N)=O)[C@@H](O)[C@@H]3O)[C@@H]2O)C[C@@H]2O[C@](O)(C[C@@H](O)C[C@@H](O)[C@H](O)CC[C@@H](O)C[C@@H](O)CC(=O)O[C@H]1C)C[C@H](O)[C@H]2C(=O)O (stereo partly drawn) [AmB 12, 1-amino-1-deoxy-D-arabinoglucuronamidyl-AmB]																			150 mg/mL (≈ 136 mM)
C[C@@H]1[C@H](O)[C@@H](C)/C=C/C=C/C=C/C=C/C=C/C=C/C=C/[C@H](O[C@@H]2O[C@H](C)[C@@H](O)[C@H](NCC3(O)O[C@H](C(=O)O)[C@@H](O)[C@@H]3O)[C@@H]2O)C[C@@H]2O[C@](O)(C[C@@H](O)C[C@@H](O)[C@H](O)CC[C@@H](O)C[C@@H](O)CC(=O)O[C@H]1C)C[C@H](O)[C@H]2C(=O)O (stereo partly drawn) [AmB 17, 1-amino-1-deoxy-D-arabinoglucuronyl-AmB]																			20 mg/mL (≈ 18.2 mM)
